Patent publication US20040224981A1, “Antibacterial methods and compositions” (priority 2003, published 2004)
Read-outs that look alike come from different tables or passages of the source.

Tests used:
S. aureus = test: MIC against S. aureus strains and clinical isolates (broth microdilution); type: cell-based, Staphylococcus aureus
Procedure: were tested against a collection of clinical isolates of S. aureus including strains that were multi-resistant to mupirocin and to other agents such as gentamicin and oxacillin.
The acetate and mupirocin salts of the MRS inhibitor compound 5 were tested against a collection of both low and high-level mupirocin resistant clinical isolates of S. aureus (Table 6).
The bacterial strains were tested for susceptibility to mupirocin and MRSi compound 2 using the broth microdilution method in accordance with NCCLS guideline to determine their MICs.
Briefly, the MIC and checkerboard titration assays were performed with strains in microtiter trays with cation-supplemented Mueller-Hinton broth (Difco). Inocula were prepared by suspending growth from blood agar plates in sterile saline to a density equivalent to that of a 0.5 McFarland standard and were diluted […] to produce a final inoculum of 5×10^5 CFU/ml. The trays were incubated aerobically overnight. Standard quality control strains were included with each run. Fractional inhibitory concentrations (FICs) were calculated as the MIC of drug A or B in combination/MIC of drug A or B alone, and the FIC index was obtained by adding the two FICs. FIC indices were interpreted as synergistic if the values were ≦0.5, additive or indifferent if the values were >0.5 to 4, and antagonistic if the values were >4.0.

E. faecalis = test: MIC against E. faecalis; type: cell-based; details: for MIC: Table 8
Procedure: The MRS inhibitor 4 alone and in combination with mupirocin (mupirocin salt and 1:1 combination) were tested against a collection of Gram-positive pathogens.
(§1) MRSi compound 5 alone and in combination with mupirocin was tested recent clinical isolates of E. faecalis (n=28) and E. faecium (n=23). Both the acetate salt and mupirocinate salts of MRSi compound 5 maintained potent activity against vancomycin-susceptible and—resistant enterococci (Tables 8, 9, and 10).

E. faecium = test: MIC against E. faecium; type: cell-based; details: Table 8, E. faecium ATCC 33667
Procedure: as §1

[1] = recent clinical isolates of E. faecalis, ALL (28)

Cc1onc(-c2ccccc2)c1C(=O)N[C@@H]1C(=O)N2[C@@H]1SC(C)(C)[C@@H]2C(=O)O [Oxacillin]
MIC (S. aureus; Staphylococcus aureus, ATCC43300, S. aureus ATCC 43300 (ORSA), read-out: MIC): 4 µg/mL
MIC (S. aureus; Staphylococcus aureus, NRS 1 / VISA, S. aureus NRS1 (VISA), read-out: MIC): > 64 µg/mL
MIC (S. aureus; Staphylococcus aureus, NRS 1 / VISA, VISA, S. aureus NRS1 (Mu50), read-out: MIC): > 64 µg/mL
MIC (S. aureus; Staphylococcus aureus, NRS 3 / VISA, VISA, S. aureus NRS3 (HIP5827), read-out: MIC): > 64 µg/mL
MIC (S. aureus; Staphylococcus aureus, NRS 4 / VISA, VISA, S. aureus NRS4 (HIP5836), read-out: MIC): 64 µg/mL
MIC (S. aureus; Staphylococcus aureus, NRS 18 / VISA, VISA, S. aureus NRS18 (HIP06854), read-out: MIC): 2 µg/mL
MIC (S. aureus; Staphylococcus aureus, NRS 24 / VISA, VISA, S. aureus NRS24 (HIP09143), read-out: MIC): 32 µg/mL
MIC (S. aureus; Staphylococcus aureus, NRS 49 / VISA, VISA, S. aureus NRS49 (Korea), read-out: MIC): > 64 µg/mL
MIC (S. aureus; Staphylococcus aureus, NRS54, Table 6, high-level mupirocin-resistant S. aureus NRS54, read-out: MIC): > 64 µg/mL
MIC (S. aureus; Staphylococcus aureus, NRS 54 / VISA, VISA, S. aureus NRS54 (Brazil), read-out: MIC): > 64 µg/mL
MIC (S. aureus; Staphylococcus aureus, NRS 56 / VISA, VISA, S. aureus NRS56 (Brazil), read-out: MIC): > 64 µg/mL
MIC (S. aureus; Staphylococcus aureus, NRS107, S. aureus NRS107 (HL Mup rest.), read-out: MIC): 0.12 µg/mL
MIC (S. aureus; Staphylococcus aureus, NRS107, Table 6, high-level mupirocin-resistant S. aureus NRS107, read-out: MIC): 0.12 µg/mL
MIC (S. aureus; Staphylococcus aureus, NRS127, Table 6, low-level mupirocin-resistant S. aureus NRS127, read-out: MIC): 64 µg/mL
MIC (S. aureus; Staphylococcus aureus, S. aureus 10-420 (LL Mup. Rest.), read-out: MIC): 16 µg/mL
MIC (S. aureus; Staphylococcus aureus, S. aureus 14-354 (LL Mup. Rest.), read-out: MIC): > 64 µg/mL
MIC (S. aureus; Staphylococcus aureus, S. aureus 25-670 (HL Mup. Rest.), read-out: MIC): > 64 µg/mL
MIC (S. aureus; Staphylococcus aureus, S. aureus 31-1334 (LL Mup Rest.), read-out: MIC): > 64 µg/mL
MIC (S. aureus; Staphylococcus aureus, S. aureus 36-1298 (LL Mup. Rest.), read-out: MIC): 0.25 µg/mL
MIC (S. aureus; Staphylococcus aureus, S. aureus 87-2797 (HL Mup. Rest.), read-out: MIC): > 64 µg/mL
MIC (S. aureus; Staphylococcus aureus, S. aureus 87-2797 (Mup. Susc.), read-out: MIC): > 64 µg/mL
MIC (S. aureus; Staphylococcus aureus, S. aureus 101-100 (Mup. Susc.), read-out: MIC): 16 µg/mL
MIC (S. aureus; Staphylococcus aureus, S. aureus LZ1 (HL Mup rest.), read-out: MIC): > 64 µg/mL
MIC (S. aureus; Staphylococcus aureus, S. aureus LZ6 (HL Mup rest.), read-out: MIC): > 64 µg/mL
MIC (S. aureus; Staphylococcus aureus, S. aureus LZ8 (LL Mup. Rest.), read-out: MIC): > 64 µg/mL
MIC (S. aureus; Staphylococcus aureus, S. aureus LZ9, read-out: MIC): > 64 µg/mL
MIC (S. aureus; Staphylococcus aureus, S. aureus LZ10, read-out: MIC): > 64 µg/mL
MIC (S. aureus; Staphylococcus aureus, S. aureus Miles Hall, read-out: MIC): 0.25 µg/mL
MIC (S. aureus; Staphylococcus aureus, S. aureus Oxford, read-out: MIC): 0.015 µg/mL
MIC (S. aureus; Staphylococcus aureus, Table 6, S. aureus (mupirocin-susceptible) 010-100, read-out: MIC): 8 µg/mL
MIC (S. aureus; Staphylococcus aureus, Table 6, S. aureus (mupirocin-susceptible) 087-2789, read-out: MIC): > 64 µg/mL
MIC (S. aureus; Staphylococcus aureus, Table 6, S. aureus (mupirocin-susceptible) LZ9, read-out: MIC): > 64 µg/mL
MIC (S. aureus; Staphylococcus aureus, Table 6, S. aureus (mupirocin-susceptible) LZ10, read-out: MIC): > 64 µg/mL
MIC (S. aureus; Staphylococcus aureus, Table 6, high-level mupirocin-resistant S. aureus 010-420, read-out: MIC): 8 µg/mL
MIC (S. aureus; Staphylococcus aureus, Table 6, high-level mupirocin-resistant S. aureus 25-670, read-out: MIC): > 64 µg/mL
MIC (S. aureus; Staphylococcus aureus, Table 6, high-level mupirocin-resistant S. aureus 87-2797, read-out: MIC): > 64 µg/mL
MIC (S. aureus; Staphylococcus aureus, Table 6, high-level mupirocin-resistant S. aureus 1079101, read-out: MIC): 0.25 µg/mL
MIC (S. aureus; Staphylococcus aureus, Table 6, high-level mupirocin-resistant S. aureus LZ1, read-out: MIC): > 64 µg/mL
MIC (S. aureus; Staphylococcus aureus, Table 6, high-level mupirocin-resistant S. aureus LZ6, read-out: MIC): > 64 µg/mL
MIC (S. aureus; Staphylococcus aureus, Table 6, low-level mupirocin-resistant S. aureus 014-354, read-out: MIC): > 64 µg/mL
MIC (S. aureus; Staphylococcus aureus, Table 6, low-level mupirocin-resistant S. aureus 031-1334, read-out: MIC): 64 µg/mL
MIC (S. aureus; Staphylococcus aureus, Table 6, low-level mupirocin-resistant S. aureus 036-1298, read-out: MIC): 8 µg/mL
MIC (S. aureus; Staphylococcus aureus, Table 6, low-level mupirocin-resistant S. aureus 1081148, read-out: MIC): 8 µg/mL
MIC (S. aureus; Staphylococcus aureus, Table 6, low-level mupirocin-resistant S. aureus LZ8, read-out: MIC): > 64 µg/mL
MIC (S. aureus; Staphylococcus aureus, Table 6, low-level mupirocin-resistant S. aureus Miles Hall, read-out: MIC): 0.12 µg/mL
MIC50 (S. aureus; Staphylococcus aureus, all S. aureus isolates of Table 6, read-out: MIC50): > 64 µg/mL
MIC90 (S. aureus; Staphylococcus aureus, all S. aureus isolates of Table 6, read-out: MIC90): > 64 µg/mL
MIC90 (S. aureus; Staphylococcus aureus, all S. aureus strains of Table 1, read-out: MIC 90): > 64 µg/mL

C=C(F)c1sc(CNCCCNc2cc(=O)c3ccccc3[nH]2)c(C)c1Br [MRSi Cmpd 5 mupirocinate, N-(4-bromo-5-(1-fluorovinyl)-3-methylthiophen-2-ylmethyl)-N′(1H-quinolin-4-one)propane-1,3-diamine Mupirocinate]
MIC90 (E. faecalis; E. faecalis, Van-R(11)): 0.03 µg/mL
MIC90 (E. faecalis; E. faecalis, Van-S (16)): 0.03 µg/mL
MIC90 (E. faecalis; [1]): 0.03 µg/mL
Mode (MIC) (E. faecalis; [1]): 0.03 µg/mL

O=c1cc(NCCCNC2CCNc3c(Br)cc(Br)cc32)[nH]c2ccccc12 (centres unmarked) [MRSi cmpd 1, 2-[3-(6,8-Dibromo-2,3,4,5-tetrahydroquinolin-4-ylamino)prop-1-ylamino]-1H-quinolin-4-one]
MIC (S. aureus; S. aureus 10-420 (LL Mup. Rest.)): 0.12 µg/mL
MIC (S. aureus; S. aureus 14-354 (LL Mup. Rest.)): 0.25 µg/mL
MIC (S. aureus; S. aureus 25-670 (HL Mup. Rest.)): 0.12 µg/mL
MIC (S. aureus; S. aureus 31-1334 (LL Mup Rest.)): 0.12 µg/mL
MIC (S. aureus; S. aureus 36-1298 (LL Mup. Rest.)): 0.015 µg/mL
MIC (S. aureus; S. aureus 87-2797 (HL Mup. Rest.)): 0.12 µg/mL
MIC (S. aureus; S. aureus 87-2797 (Mup. Susc.)): 0.12 µg/mL
MIC (S. aureus; S. aureus 101-100 (Mup. Susc.)): 0.06 µg/mL
MIC (S. aureus; S. aureus ATCC 43300 (ORSA)): 0.25 µg/mL
MIC (S. aureus; S. aureus LZ1 (HL Mup rest.)): 0.06 µg/mL
MIC (S. aureus; S. aureus LZ6 (HL Mup rest.)): 0.12 µg/mL
MIC (S. aureus; S. aureus LZ8 (LL Mup. Rest.)): 0.06 µg/mL
MIC (S. aureus; S. aureus LZ9): 0.06 µg/mL
MIC (S. aureus; S. aureus LZ10): 0.12 µg/mL
MIC (S. aureus; S. aureus Miles Hall): 0.12 µg/mL
MIC (S. aureus; S. aureus NRS1 (VISA)): 0.12 µg/mL
MIC (S. aureus; S. aureus NRS107 (HL Mup rest.)): 0.03 µg/mL
MIC (S. aureus; S. aureus Oxford): 0.12 µg/mL
MIC90 (S. aureus; all S. aureus strains of Table 1): 0.25 µg/mL
MIC Range (S. aureus; all S. aureus strains of Table 1 (mupirocin-susceptible and -resistant)): 0.015 to 0.12 µg/mL
MIC (E. faecalis; E. faecalis 1): ≦0.004 μg/mL
MIC (E. faecalis; E. faecalis 7): 0.015 µg/mL
MIC (E. faecalis; E. faecalis ATCC 51299 (VRE)): 0.015 µg/mL
MIC (E. faecium): ≦0.004 μg/mL

CC1(C)S[C@@H]2[C@H](NC(=O)[C@H](N)c3ccccc3)C(=O)N2[C@H]1C(=O)O [Ampicillin, reference compound]
MIC (E. faecalis; Enterococcus faecalis, ATCC 51299 / VRE, E. faecalis ATCC 51299 (VRE), read-out: MIC): 0.5 µg/mL
MIC (E. faecalis; Enterococcus faecalis, E. faecalis 1, read-out: MIC): 0.5 µg/mL
MIC (E. faecalis; Enterococcus faecalis, E. faecalis 7, read-out: MIC): 0.5 µg/mL
MIC (E. faecium; Enterococcus faecium, ATCC33667, read-out: MIC): 1 µg/mL
